Results reported in publication PMC7802075 (ACS Infectious Diseases, 2020).

Target: T1, LmjIPCS (inositol phosphorylceramide synthase from L. major) (Leishmania major, UniProt E9AFX2)
T1 sequence (E9AFX2 1-338): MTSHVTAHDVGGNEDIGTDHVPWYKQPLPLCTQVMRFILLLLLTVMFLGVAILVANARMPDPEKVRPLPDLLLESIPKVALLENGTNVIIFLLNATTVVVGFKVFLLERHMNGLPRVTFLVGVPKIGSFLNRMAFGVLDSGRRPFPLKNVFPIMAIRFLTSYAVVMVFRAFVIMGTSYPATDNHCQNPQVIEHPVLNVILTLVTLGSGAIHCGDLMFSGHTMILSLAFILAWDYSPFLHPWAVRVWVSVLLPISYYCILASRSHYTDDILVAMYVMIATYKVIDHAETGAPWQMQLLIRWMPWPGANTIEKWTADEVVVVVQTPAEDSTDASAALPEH
Experiment: biochemical
Type: biochemical
Design: inhibition: dose or concentration left out as unconfirmed
Settings: not given

Row | Compound | 20mM inhibition LmjIPCS
1 | COC(=O)[C@]1(C)CC[C@]2(C)CC[C@]3(C)C4=CC=C5C(=CC(=O)C(O)=C5C)[C@]4(C)CC[C@@]3(C)[C@@H]2C1 [PRISTIMERIN] | 62%
2 | COc1cccc(OC)c1OCCNCC1COc2ccccc2O1 (stereo not drawn) | -4.65%
3 | CN1[C@@H](CC(=O)c2ccccc2)CCC[C@H]1C[C@H](O)c1ccccc1 [LOBELINE] | 38%
4 | O=C1OC(=O)[C@H]2[C@@H]1[C@@H]1CC[C@H]2O1 [NORCANTHARIDIN] | 1.76%
5 | CCN(CC)CCCC(C)Nc1ccnc2cc(Cl)ccc12 (stereo not drawn) [CHLOROQUINE] | 38%
6 | Nc1c2c(nc3ccccc13)CCCC2O.O=C(O)/C=C\C(=O)O (stereo not drawn) [HYDROXYTACRINE MALEATE] | 11%
7 | Nc1c(Br)cc(Br)cc1CN[C@H]1CC[C@H](O)CC1 [AMBROXOL] | 53%
8 | CCCc1ncc(C[n+]2ccccc2C)c(N)n1 [AMPROLIUM] | 44%
9 | BENZALKONIUM CHLORIDE | 9%
10 | COC(=O)[C@H]1[C@H]2C[C@H]3c4[nH]c5cc(OC)ccc5c4CCN3C[C@H]2C[C@@H](OC(=O)c2cc(OC)c(OC)c(OC)c2)[C@@H]1OC [ISORESERPINE] | 47%
11 | COc1ccc2c(c1)CC[C@@H]1[C@@H]2CC[C@]2(C)[C@@H](O)CC[C@@H]12 [ESTRADIOL METHYL ETHER] | 40%
12 | Clc1cccc(Cl)c1N=C1NCCN1 [CLONIDINE] | 43%
13 | Cc1cccc(N(C)C(=S)Oc2ccc3ccccc3c2)c1 [TOLNAFTATE] | 62%

Same assay, conditions: NINDS set screen, single concentration printed as 20mM

Row | Compound | 20mM inhibition LmjIPCS
14 | N#Cc1ccc2c(c1)N(CCCN1CCC(O)CC1)c1ccccc1S2 [PERICIAZINE] | 52%
15 | CC12CCC3c4ccc(OCc5ccccc5)cc4CCC3C1C[C@@H](O)[C@@H]2O (stereo partly drawn) [ESTRIOL BENZYL ETHER] | 42%
16 | CC(=O)NO [ACETOHYDROXAMIC ACID] | 34%
17 | Nc1ccc(S(=O)(=O)Nc2nccs2)cc1 [SULFATHIAZOLE] | 35%
18 | NS(=O)(=O)c1cc2c(cc1Cl)N=C(CSCc1ccccc1)NS2(=O)=O [BENZTHIAZIDE] | 36%
19 | CC[C@H](c1ccc(O)cc1)[C@@H](CC)c1ccc(O)cc1 [HEXESTROL] | 34%

Same assay, conditions: NINDS set screen; read-out: inhibition LmjIPCS

Row | Compound | inhibition
20 | NC(=O)c1ccccc1O [SALICYLAMIDE] | 0.588%
21 | CCOc1ccc(Cc2nccc3cc(OCC)c(OCC)cc23)cc1OCC [ETHAVERINE] | -7%
22 | Cn1c([N+](=O)[O-])cnc1COC(N)=O [RONIDAZOLE] | 0.0172%
23 | Oc1c(I)cc(I)c2cccnc12 [IODOQUINOL] | 23%
24 | COC(=O)/C(=C1/OC(=O)C(c2ccccc2)=C1O)c1ccccc1 [VULPINIC ACID] | 13%
25 | Nc1ccc(S(=O)(=O)NC(=O)c2ccccc2)cc1 [SULFABENZAMIDE] | -6%
26 | CC1=C(/C=C/C(C)=C/C=C/C(C)=C/CO)C(C)(C)CCC1 [RETINOL] | 21%
27 | CCCN(CCC)S(=O)(=O)c1ccc(C(=O)O)cc1 [PROBENECID] | 13%
28 | CN(C)CCC(c1ccccc1)c1ccccn1 (stereo not drawn) [PHENIRAMINE] | -1%

Same assay, conditions: read-out: 20mM inhibition LmjIPCS

Row | Compound | inhibition at 20000 µM
29 | COc1cc([C@@H]2c3cc4c(c(O)c3C[C@H]3COC(=O)[C@@H]32)OCO4)cc(OC)c1OC [beta-PELTATIN] | -1.86%
30 | OC[C@H]1O[C@@H](O[C@@H]2[C@@H](CO)OC(O)(CO)[C@H]2O)[C@H](O)[C@@H](O)[C@H]1O (mixture of isomers) [LACTULOSE] | 26%
31 | O=C(Cn1ccnc1[N+](=O)[O-])NCCO [ETANIDAZOLE] | 3.58%
32 | C1CCc2nnnn2CC1 [PENTETRAZOL] | 16%
33 | C[C@H]1O[C@@H](O[C@H]2[C@@H](O)C[C@H](O[C@H]3[C@@H](O)C[C@H](O[C@H]4CC[C@@]5(C)[C@H](CC[C@@H]6[C@@H]5C[C@@H](O)[C@]5(C)[C@@H](C7=CC(=O)OC7)CC[C@]65O)C4)O[C@@H]3C)O[C@@H]2C)C[C@H](O)[C@@H]1O [DIGOXIN] | 5.32%
34 | NC(=O)c1ncn([C@@H]2O[C@H](CO)[C@@H](O)[C@H]2O)c1O [MIZORIBINE] | 6.58%
35 | CC(=O)O[C@]1(C(C)=O)CC[C@H]2[C@@H]3C=C(Cl)C4=CC(=O)CC[C@]4(C)[C@H]3CC[C@@]21C [CHLORMADINONE ACETATE] | 13%
36 | CCOC(N)=O | 11%
37 | NC(=O)c1ccc[n+]([C@@H]2O[C@H](COP(=O)([O-])OP(=O)(O)OC[C@H]3O[C@@H](n4cnc5c(N)ncnc54)[C@H](OP(=O)(O)O)[C@@H]3O)[C@@H](O)[C@H]2O)c1 | 7%
38 | O=c1cccc2n1C[C@@H]1CNC[C@H]2C1 [CYTISINE] | 9%
39 | CC(=O)N[C@@H](CC(=O)N[C@@H](CCC(=O)O)C(=O)O)C(=O)O [SPAGLUMIC ACID] | 1.82%
40 | COc1cc(C(C)=O)cc(OC)c1O [ACETOSYRINGONE] | 21%
41 | CN1[C@@H]2C[C@@H](OC(=O)[C@H](CO)c3ccccc3)C[C@H]1[C@@H]1O[C@@H]12 [SCOPOLAMINE] | -2.65%
42 | NC[C@H](O)c1ccc(O)c(O)c1 [NOREPINEPHRINE] | 12%
43 | CC(=O)NS(=O)(=O)c1ccc(N)cc1 [SULFACETAMIDE] | -1.63%
44 | C[C@@H](CO)NC(=O)[C@@H]1C=C2c3cccc4[nH]cc(c34)C[C@H]2N(C)C1 [ERGONOVINE] | 6.33%
45 | CC(=O)OCC(=O)[C@@]1(O)CC[C@H]2[C@@H]3CCC4=CC(=O)CC[C@]4(C)[C@@]3(F)[C@@H](O)C[C@@]21C [FLUDROCORTISONE ACETATE] | 4.65%
46 | O=C(O)CCCc1ccccc1 [PHENYLBUTYRATE] | 1.15%
47 | O=C(O)c1cc2cc(Cc3cccnc3)ccc2o1 [FUREGRELATE] | -16%
48 | COc1cc(/C=C/C(=O)CC(=O)/C=C/c2ccc(O)c(OC)c2)ccc1O [CURCUMIN] | -10%
49 | CC(=O)Oc1ccc(Cl)c2cccnc12 [CHLOROACETOXYQUINOLINE] | 19%
50 | CC(C)NCC(O)c1cc(O)cc(O)c1 (stereo not drawn) [METAPROTERENOL] | 7%
51 | CO[C@@]1(NC(=O)CSCC#N)C(=O)N2C(C(=O)O)=C(CSc3nnnn3C)CS[C@@H]21 [CEFMETAZOLE] | 13%
52 | OCc1ccccc1O[C@@H]1O[C@H](CO)[C@@H](O)[C@H](O)[C@H]1O [SALICIN] | 14%
53 | COc1ccccc1OCC(O)COC(N)=O (stereo not drawn) [METHOCARBAMOL] | 13%
54 | C=CC1=C(C(=O)O)N2C(=O)[C@@H](NC(=O)/C(=N\O)c3csc(N)n3)[C@H]2SC1 | 9%
55 | Cc1ccc(S(=O)(=O)NC(=O)NN2CC3CCCC3C2)cc1 (stereo not drawn) [GLICLAZIDE] | 14%
56 | CO[C@H]1/C=C/O[C@@]2(C)Oc3c(C)c(O)c4c(O)c(c5c(nc6cc(C)ccn65)c4c3C2=O)NC(=O)/C(C)=C\C=C\[C@H](C)[C@H](O)[C@@H](C)[C@@H](O)[C@@H](C)[C@H](OC(C)=O)[C@@H]1C [RIFAXIMIN] | 6%
57 | CC(C)CC(NC(=O)OCC1c2ccccc2-c2ccccc21)C(=O)O (stereo in doubt) | 12%

Same assay, conditions: read-out: inhibition LmjIPCS

Row | Compound | inhibition
58 | C[C@]12C=CC(=O)C=C1CC[C@@H]1[C@@H]2C(=O)C[C@@]2(C)[C@H]1CC[C@]2(O)C(=O)CO [PREDNISONE] | -4%
59 | CCCC(=O)Nc1ccc(OCC(O)CNC(C)C)c(C(C)=O)c1 (stereo not drawn) [ACEBUTOLOL] | -2.11%
60 | CN(Cc1cnc2nc(N)nc(N)c2n1)c1ccc(C(=O)N[C@@H](CCC(=O)O)C(=O)O)cc1 [METHOTREXATE] | 8%
61 | CC(C)N(CCC(C(N)=O)(c1ccccc1)c1ccccn1)C(C)C (stereo not drawn) [DISOPYRAMIDE] | 10%
62 | Cc1cnc(NC(=O)C2=C(O)c3ccccc3S(=O)(=O)N2C)s1 [MELOXICAM] | 11%
63 | O=C1NC(=O)C(c2ccccc2)(c2ccccc2)N1 [PHENYTOIN] | 14%
64 | O=C(O)P(=O)(O)O [FOSCARNET] | 2%
65 | CC(C)(C)NC[C@H](O)COc1nsnc1N1CCOCC1 [TIMOLOL] | 22%
66 | CC1Cc2ccccc2N1NC(=O)c1ccc(Cl)c(S(N)(=O)=O)c1 (stereo not drawn) [INDAPAMIDE] | 5%
67 | CCc1cccc2c3c([nH]c12)C(CC)(CC(=O)O)OCC3 (stereo not drawn) [ETODOLAC] | 13%
68 | COc1ccc(Cl)cc1C(=O)NCCc1ccc(S(=O)(=O)NC(=O)NC2CCCCC2)cc1 [GLYBURIDE] | 13%
69 | Cc1cc2nc3c(=O)[nH]c(=O)nc-3n(C[C@H](O)[C@H](O)[C@H](O)CO)c2cc1C [RIBOFLAVIN] | 2.26%
70 | COc1cc(NS(=O)(=O)c2ccc(N)cc2)nc(OC)n1 [SULFADIMETHOXINE] | 15%
71 | O=c1cc(-c2ccccc2)oc2cc(O)cc(O)c12 [CHRYSIN] | 22%
72 | C[C@H]1COc2c(N3CCN(C)CC3)c(F)cc3c(=O)c(C(=O)O)cn1c23 [LEVOFLOXACIN] | 11%
73 | C[C@H]1[C@H](C)CC[C@]2(C(=O)O)CC[C@]3(C)C(=CC[C@@H]4[C@@]5(C)C[C@@H](O)[C@H](O)[C@@](C)(CO)[C@@H]5[C@H](O)C[C@]43C)[C@H]12 [MADECASSIC ACID] | 10%
74 | COc1ccc(C(=O)c2ccccc2O)c(O)c1 [DIOXYBENZONE] | 11%

Same assay, conditions: screening of NINDS set, sheet Screen 1; read-out: inhibition LmjIPCS

Row | Compound | inhibition
75 | COC(=O)Nc1nc2ccc([S+]([O-])c3ccccc3)cc2[nH]1 (stereo not drawn) [OXFENDAZOLE] | 10%
76 | Cc1nc(C)c(Cl)c(O)c1Cl [CLOPIDOL] | 7%
77 | S=c1[nH]cnc2nc[nH]c12 [MERCAPTOPURINE] | 6%
78 | Cc1onc(-c2ccccc2)c1-c1ccc(S(N)(=O)=O)cc1 [VALDECOXIB] | 3.24%
